Structures can show the parent of a compound that is named as a salt. Calls of active or inactive are those of the source.
Key:
[1] = target: T1, 1-phosphatidylinositol 4,5-bisphosphate phosphodiesterase gamma-1 (Homo sapiens, UniProt P19174); experiment: Counterscreen for inhibitors of phospholipase C isozymes (PLC-B3): Fluorescence-based biochemical high throughput dose response assay to identify inhibitors of phospholipase C isozymes (PLC-gamma1).
T1 sequence (P19174 whole entry): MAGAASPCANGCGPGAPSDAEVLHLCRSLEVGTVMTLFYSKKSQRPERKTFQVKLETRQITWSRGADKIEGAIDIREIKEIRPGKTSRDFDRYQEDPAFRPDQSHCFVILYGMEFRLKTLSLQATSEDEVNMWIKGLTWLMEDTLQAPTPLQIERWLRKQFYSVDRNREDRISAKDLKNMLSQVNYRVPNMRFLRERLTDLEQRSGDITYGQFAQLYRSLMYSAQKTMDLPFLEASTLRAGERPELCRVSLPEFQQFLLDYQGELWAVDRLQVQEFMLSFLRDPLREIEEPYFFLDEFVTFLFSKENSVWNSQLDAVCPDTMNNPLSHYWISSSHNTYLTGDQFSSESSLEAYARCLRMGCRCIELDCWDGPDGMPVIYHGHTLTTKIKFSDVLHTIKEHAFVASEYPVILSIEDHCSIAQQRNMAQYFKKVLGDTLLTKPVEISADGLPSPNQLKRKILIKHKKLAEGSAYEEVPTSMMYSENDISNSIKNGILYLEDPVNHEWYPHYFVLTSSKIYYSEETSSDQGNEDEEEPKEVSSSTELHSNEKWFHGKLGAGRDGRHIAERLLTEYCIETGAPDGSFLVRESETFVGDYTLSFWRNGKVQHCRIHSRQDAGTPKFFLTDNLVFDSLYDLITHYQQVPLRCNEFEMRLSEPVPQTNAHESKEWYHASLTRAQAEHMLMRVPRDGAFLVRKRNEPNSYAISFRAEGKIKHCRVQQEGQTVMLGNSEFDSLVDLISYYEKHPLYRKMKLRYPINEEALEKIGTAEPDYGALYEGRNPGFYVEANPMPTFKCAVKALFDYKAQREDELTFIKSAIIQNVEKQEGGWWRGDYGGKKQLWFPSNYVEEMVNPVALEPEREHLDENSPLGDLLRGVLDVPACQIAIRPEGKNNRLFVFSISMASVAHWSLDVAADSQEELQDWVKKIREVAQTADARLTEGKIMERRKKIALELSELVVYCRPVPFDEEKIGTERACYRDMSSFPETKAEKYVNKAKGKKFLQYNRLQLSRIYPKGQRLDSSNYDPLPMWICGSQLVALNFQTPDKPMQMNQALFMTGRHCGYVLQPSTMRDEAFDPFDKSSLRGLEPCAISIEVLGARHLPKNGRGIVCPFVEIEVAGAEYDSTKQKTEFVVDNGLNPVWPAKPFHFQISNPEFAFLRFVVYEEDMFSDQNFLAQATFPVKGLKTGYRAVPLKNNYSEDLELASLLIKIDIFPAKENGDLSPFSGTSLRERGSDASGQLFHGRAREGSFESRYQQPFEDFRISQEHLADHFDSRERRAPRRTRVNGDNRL

[2] = target: T2, 1-phosphatidylinositol 4,5-bisphosphate phosphodiesterase beta-3 (Homo sapiens, UniProt Q01970); experiment: Fluorescence-based biochemical high throughput dose response assay to identify inhibitors of phospholipase C isozymes (PLC-B3).
T2 sequence (Q01970 whole entry): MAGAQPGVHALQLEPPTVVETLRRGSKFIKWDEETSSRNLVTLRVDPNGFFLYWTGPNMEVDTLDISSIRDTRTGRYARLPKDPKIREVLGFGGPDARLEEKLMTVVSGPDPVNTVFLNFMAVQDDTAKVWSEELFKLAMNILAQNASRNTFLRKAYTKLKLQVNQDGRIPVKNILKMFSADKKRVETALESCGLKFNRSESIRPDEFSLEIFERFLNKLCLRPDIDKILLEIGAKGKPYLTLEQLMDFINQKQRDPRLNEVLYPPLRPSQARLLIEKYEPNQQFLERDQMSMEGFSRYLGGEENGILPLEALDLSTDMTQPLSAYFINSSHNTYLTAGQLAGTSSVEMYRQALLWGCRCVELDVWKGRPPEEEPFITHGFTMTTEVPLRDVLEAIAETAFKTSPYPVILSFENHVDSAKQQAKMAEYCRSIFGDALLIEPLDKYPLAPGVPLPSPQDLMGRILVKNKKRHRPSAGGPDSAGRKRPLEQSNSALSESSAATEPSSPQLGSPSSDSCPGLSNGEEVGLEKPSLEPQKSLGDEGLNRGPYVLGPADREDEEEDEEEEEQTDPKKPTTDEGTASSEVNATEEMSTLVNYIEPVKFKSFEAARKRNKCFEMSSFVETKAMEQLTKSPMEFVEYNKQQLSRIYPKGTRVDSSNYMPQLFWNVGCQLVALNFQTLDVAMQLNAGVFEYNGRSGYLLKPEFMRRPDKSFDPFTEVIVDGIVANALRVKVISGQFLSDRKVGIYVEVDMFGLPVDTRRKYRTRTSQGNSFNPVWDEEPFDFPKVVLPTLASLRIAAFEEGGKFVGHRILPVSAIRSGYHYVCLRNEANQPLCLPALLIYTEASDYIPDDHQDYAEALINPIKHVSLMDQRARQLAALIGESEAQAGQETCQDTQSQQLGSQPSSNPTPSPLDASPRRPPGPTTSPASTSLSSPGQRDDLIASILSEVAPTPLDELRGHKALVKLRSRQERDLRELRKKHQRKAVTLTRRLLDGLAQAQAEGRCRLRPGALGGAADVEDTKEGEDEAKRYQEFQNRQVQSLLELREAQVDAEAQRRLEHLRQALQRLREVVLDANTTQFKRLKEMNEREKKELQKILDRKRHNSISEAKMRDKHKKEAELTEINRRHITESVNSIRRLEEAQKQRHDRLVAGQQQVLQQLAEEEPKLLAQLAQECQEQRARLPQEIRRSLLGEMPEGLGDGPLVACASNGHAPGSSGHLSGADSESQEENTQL

[3] = target: T3, Oxysterols receptor LXR-beta (Homo sapiens, UniProt P55055); type: functional, cell-based;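 also: Cell-based luminescence dose-response assay of agonist activity at LXR, run as a confirmatory counterscreen to a daf-12 agonist screen; HEK293 cells with Gal4-LXR fusion and GAL4-driven luciferase reporter; agonist potency from rising luciferase signal of a Gal4-LXR reporter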
T3 sequence (P55055 whole entry): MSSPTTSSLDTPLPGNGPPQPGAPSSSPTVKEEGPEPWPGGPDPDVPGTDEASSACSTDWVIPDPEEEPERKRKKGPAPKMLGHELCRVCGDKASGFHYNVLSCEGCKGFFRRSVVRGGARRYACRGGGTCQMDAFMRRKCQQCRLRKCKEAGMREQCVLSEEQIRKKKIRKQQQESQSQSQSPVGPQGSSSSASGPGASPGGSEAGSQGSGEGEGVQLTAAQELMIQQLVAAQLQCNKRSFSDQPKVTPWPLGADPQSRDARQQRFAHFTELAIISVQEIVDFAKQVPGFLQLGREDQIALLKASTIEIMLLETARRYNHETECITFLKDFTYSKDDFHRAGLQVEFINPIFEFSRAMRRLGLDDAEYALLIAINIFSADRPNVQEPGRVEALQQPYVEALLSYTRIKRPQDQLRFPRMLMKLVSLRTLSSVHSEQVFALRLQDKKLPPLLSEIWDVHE

[4] = cells
[5] = target: T4, Protein skinhead-1 (Caenorhabditis elegans, UniProt P34707); type: functional
T4 sequence (P34707 whole entry): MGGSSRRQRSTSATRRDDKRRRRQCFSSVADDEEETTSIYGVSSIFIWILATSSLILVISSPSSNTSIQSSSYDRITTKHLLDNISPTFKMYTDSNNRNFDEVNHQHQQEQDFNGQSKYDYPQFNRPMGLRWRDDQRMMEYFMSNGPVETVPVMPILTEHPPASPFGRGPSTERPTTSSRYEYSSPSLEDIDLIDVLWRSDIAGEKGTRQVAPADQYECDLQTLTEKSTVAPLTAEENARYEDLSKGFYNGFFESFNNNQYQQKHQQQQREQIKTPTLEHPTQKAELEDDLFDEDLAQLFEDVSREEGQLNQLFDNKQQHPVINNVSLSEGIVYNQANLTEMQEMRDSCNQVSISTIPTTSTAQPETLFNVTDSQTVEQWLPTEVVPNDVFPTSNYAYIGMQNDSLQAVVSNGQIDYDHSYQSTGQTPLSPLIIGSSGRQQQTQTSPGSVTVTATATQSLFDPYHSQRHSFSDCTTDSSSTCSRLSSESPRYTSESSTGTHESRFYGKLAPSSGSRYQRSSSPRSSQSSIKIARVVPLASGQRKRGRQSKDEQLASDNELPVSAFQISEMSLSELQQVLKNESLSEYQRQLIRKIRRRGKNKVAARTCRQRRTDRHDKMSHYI

[6] = target: Voltage-dependent T-type calcium channel subunit alpha-1H (Homo sapiens, UniProt O95180); type: functional;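 also: channel activity triggered by adding a high calcium stimulation buffer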
[7] = toxicity to human hepatoma HepG2 cells – cell-based, cherry-picked samples, cytotoxicity control, dose response (AID 1159577); type: functional
[8] = target: T5, Polyadenylate-binding protein 1 (Homo sapiens, UniProt P11940); experiment: MLLE domain peptide-binding blockers, IC50 – biochemical, fluorescence polarization, FITC-PAM2 peptide, dose response (AID 602259); type: functional; conditions: read-out: IC50_Mean
[9] = IC50 of insulin release inhibition, rat insulinoma INS-1E line, 5 mM glucose, cell-based (AID 1117331); type: functional
[10] = target: T5, Polyadenylate-binding protein 1; experiment: MLLE binding blockers, Cy5 peptide tracer – biochemical, fluorescence polarization, Cy5-PAM2 peptide, secondary, miRNA deadenylation inhibitor project, dose response (AID 602260); type: functional; conditions: read-out: IC50_Mean
[11] = target: T6, Cytochrome P450 1A2 (Homo sapiens, UniProt P05177);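 also: PubChem cytochrome P450 panel assay, CYP1A2 panel member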
T6 sequence (P05177 whole entry): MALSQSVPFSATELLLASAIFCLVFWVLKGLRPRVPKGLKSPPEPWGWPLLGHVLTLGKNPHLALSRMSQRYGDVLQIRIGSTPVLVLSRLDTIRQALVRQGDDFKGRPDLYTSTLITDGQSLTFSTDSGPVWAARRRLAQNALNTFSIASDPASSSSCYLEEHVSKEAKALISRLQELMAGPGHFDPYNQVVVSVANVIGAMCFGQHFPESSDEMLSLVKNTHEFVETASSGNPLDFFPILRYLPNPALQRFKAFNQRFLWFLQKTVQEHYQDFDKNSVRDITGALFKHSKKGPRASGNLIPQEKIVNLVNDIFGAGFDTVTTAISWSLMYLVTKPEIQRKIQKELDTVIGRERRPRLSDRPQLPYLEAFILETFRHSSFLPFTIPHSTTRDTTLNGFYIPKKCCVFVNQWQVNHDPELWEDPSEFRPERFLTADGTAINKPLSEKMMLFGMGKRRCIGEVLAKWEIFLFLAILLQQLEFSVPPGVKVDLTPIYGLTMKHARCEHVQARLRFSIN

[12] = target: T7, Heat shock factor protein 1 (Mus musculus, UniProt P38532); experiment: decrease of HSF1-responsive luciferase luminescence – cell-based, NIH3T3, dose retest, confirmation (AID 2382); type: functional;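 also: NIH3T3 fibroblasts with HSF1-driven luciferase reporter stressed by proteasome inhibitor MG132; luminescence from HSF1-driven luciferase expression after 8 hours of MG132 stress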
T7 sequence (P38532 whole entry): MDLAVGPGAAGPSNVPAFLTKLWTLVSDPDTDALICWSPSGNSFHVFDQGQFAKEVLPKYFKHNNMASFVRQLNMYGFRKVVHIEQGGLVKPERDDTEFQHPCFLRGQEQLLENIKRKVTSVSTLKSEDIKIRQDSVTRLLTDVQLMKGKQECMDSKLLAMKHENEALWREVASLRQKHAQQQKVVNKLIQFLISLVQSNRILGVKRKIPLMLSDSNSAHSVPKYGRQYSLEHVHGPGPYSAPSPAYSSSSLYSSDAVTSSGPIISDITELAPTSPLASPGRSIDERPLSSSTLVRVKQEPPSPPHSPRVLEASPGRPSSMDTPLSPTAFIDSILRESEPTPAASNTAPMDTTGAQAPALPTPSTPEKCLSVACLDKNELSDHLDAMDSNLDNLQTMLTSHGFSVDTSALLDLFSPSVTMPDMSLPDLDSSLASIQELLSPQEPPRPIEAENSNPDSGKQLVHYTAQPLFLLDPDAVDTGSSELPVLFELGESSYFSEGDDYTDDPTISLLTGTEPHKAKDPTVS

[13] = target: T8, COUP transcription factor 2 (Homo sapiens, UniProt P24468); experiment: Luminescence-based cell-based high throughput dose response assay to identify inhibitors of COUP-TFII (NR2F2).; type: functional;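 also: HEK293 cells transiently cotransfected with COUP-TFII expression vector and reporter; luciferase reporter luminescence driven by COUP-TFII from the pX2-168 reporter plasmid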
T8 sequence (P24468 whole entry): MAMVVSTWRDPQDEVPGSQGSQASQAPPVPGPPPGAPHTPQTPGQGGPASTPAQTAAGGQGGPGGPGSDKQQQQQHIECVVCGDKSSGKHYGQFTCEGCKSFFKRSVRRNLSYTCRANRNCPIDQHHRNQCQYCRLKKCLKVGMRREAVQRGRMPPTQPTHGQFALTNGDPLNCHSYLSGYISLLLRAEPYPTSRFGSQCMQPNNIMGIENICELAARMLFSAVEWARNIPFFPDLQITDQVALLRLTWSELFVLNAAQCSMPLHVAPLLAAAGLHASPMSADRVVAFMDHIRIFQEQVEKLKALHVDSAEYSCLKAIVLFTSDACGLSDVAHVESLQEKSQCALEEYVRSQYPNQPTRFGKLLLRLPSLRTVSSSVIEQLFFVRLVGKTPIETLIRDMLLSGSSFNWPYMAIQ

T5 sequence (P11940 whole entry, the tested form may be a part): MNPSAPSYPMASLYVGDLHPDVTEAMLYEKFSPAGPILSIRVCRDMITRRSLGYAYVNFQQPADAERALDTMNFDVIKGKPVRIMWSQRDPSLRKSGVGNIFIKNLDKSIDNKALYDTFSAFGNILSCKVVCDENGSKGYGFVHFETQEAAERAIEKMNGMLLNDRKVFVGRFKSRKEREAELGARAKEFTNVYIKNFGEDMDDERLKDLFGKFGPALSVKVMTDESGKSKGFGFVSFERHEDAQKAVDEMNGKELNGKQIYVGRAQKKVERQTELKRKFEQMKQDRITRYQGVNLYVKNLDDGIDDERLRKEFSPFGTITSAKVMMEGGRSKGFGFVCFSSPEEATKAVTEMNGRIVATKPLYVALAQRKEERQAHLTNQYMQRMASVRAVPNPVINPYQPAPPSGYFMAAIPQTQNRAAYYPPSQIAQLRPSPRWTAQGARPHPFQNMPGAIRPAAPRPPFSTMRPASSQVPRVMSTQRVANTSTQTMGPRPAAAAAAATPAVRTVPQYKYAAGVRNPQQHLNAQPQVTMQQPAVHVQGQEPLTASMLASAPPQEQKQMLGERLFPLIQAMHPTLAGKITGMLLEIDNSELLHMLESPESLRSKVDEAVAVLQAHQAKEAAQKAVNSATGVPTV
Chain of Voltage-dependent T-type calcium channel subunit alpha-1H (O95180 whole entry): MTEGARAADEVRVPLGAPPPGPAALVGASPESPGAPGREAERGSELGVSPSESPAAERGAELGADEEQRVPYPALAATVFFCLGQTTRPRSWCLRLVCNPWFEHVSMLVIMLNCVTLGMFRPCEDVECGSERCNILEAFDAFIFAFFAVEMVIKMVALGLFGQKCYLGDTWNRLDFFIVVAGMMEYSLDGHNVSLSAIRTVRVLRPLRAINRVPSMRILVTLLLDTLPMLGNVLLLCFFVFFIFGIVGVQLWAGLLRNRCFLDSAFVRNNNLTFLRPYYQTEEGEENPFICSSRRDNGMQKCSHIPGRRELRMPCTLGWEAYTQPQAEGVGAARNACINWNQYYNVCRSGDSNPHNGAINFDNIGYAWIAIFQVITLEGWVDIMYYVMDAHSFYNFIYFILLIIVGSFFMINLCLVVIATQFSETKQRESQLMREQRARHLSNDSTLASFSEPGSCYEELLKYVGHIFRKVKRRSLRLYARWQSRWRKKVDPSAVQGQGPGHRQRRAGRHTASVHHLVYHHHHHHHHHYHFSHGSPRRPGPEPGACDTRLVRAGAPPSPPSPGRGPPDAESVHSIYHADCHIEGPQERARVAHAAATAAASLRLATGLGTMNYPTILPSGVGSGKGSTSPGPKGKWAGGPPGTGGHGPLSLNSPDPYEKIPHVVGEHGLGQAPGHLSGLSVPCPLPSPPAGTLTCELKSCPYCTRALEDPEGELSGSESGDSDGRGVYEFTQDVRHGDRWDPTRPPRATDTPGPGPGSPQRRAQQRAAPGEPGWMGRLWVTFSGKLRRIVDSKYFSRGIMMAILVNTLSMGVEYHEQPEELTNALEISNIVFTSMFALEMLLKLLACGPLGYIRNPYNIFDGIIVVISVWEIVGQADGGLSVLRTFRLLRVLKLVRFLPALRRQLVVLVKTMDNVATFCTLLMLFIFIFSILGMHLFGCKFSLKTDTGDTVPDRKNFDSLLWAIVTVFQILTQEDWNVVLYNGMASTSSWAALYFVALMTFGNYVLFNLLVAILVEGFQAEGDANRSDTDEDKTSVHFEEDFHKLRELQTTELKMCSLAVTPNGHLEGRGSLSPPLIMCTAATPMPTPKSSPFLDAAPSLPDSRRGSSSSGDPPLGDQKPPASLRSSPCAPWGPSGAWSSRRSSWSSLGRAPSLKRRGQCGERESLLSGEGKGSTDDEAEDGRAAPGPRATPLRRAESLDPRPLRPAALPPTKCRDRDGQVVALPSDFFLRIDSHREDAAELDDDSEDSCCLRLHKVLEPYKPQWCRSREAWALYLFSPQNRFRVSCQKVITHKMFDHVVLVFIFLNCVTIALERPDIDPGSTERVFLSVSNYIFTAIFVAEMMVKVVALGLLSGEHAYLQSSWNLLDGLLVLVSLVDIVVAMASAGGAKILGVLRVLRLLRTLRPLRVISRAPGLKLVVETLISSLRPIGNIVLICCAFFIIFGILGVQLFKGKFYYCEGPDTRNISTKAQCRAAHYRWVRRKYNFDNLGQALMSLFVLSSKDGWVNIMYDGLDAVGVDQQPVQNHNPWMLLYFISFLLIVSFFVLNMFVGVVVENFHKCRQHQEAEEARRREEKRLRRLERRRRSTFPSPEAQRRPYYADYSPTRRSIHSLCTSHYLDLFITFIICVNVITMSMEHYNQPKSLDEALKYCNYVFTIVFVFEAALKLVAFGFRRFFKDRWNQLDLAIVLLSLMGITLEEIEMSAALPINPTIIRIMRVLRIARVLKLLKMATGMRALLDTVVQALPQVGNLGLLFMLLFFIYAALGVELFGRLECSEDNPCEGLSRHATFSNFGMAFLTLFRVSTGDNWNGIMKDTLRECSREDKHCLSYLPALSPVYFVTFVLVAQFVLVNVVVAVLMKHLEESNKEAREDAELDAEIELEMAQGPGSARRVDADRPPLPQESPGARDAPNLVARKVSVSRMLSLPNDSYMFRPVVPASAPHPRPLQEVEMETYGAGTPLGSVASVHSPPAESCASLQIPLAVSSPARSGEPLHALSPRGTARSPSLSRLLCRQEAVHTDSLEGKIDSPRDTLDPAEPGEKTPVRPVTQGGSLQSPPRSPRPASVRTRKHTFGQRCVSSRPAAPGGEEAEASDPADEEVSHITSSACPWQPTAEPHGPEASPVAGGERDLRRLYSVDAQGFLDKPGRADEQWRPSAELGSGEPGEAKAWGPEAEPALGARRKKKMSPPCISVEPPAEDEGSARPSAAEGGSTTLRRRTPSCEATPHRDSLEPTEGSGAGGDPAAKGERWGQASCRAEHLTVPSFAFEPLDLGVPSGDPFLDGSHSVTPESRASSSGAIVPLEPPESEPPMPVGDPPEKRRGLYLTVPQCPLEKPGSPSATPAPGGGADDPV

CCNC(=O)Nc1ccc2c(c1)C(=O)N(C)[C@H]1CC[C@H](CC(=O)N[C@H](C)c3ccccc3)O[C@@H]1CO2
IC50 [1]: 68.8 µM (inactive) | IC50 [2]: 61.9 µM (inactive)

O=c1c(=NNc2ccccc2Cl)c(=O)c2ccccc12
EC50 [3]: > 67.5 µM (inactive) | EC50 [4]: > 67.5 µM (inactive)

c1ccc(Nc2nc(-c3cccs3)cs2)nc1
EC50 [3]: > 67.5 µM (inactive) | IC50 [5]: 15.6 µM (active) | EC50 [4]: > 67.5 µM (inactive) | EC50 [6]: 9.21 µM (active)

COc1ccc2c3c([nH]c2c1)[C@@H](CO)N(C(=O)Nc1ccc(F)cc1)CC31CN(Cc2cc(F)ccc2F)C1
AC50 [7]: 18.8 µM (active)

c1ccc(-c2csc(Nc3ccccn3)n2)cc1
EC50 [3]: > 67.5 µM (inactive) | IC50 [5]: 18 µM (active) | EC50 [4]: > 67.5 µM (inactive)

CC(=O)c1ccc2c(c1)N(CCCN(C)C)c1ccccc1S2 [ACEPROMAZINE MALEATE]
IC50 [8]: > 66 µM (inactive) | IC50 [9]: 11.4 µM (inactive) | IC50 [10]: > 66 µM (inactive)

CC(C)Oc1ccc(C(=O)Nc2ccc(NC(=O)c3ccco3)c(Cl)c2)cc1
AC50 [11]: 22.4 µM (inconclusive) | IC50 [1]: > 122 µM (inactive) | IC50 [2]: > 122 µM (inactive)

O=C1NC(=O)C(=NNc2ccc3c(c2)OCCO3)C(=O)N1
EC50 [12]: < 0.16 µM (active) | IC50 [13]: 6.75 µM (active)
